Experimental data published in US20070191288A1, “Treatments for Benign Tumors, Cancers, Neoplasias, and/or Other Inflammatory Disorders or Diseases” (priority 2002, published 2007).

Key:
lipoma = assay: Effects of topiramate on lipoma in a dog; format: in vivo; conditions: 12-year-old female German Shorthaired Pointer (30.8 kg), large lipoma on right rib cage; topiramate 25 mg/day once per day, 59 days versus 24 days
Method: FIG. 1A, depicts the size of a lipoma on a dog treated with topiramate for 24 days. FIG. 1B illustrates the reduction in lipoma size on the dog after topiramate had been administered for 59 days (25 mg/day administered once per day).

[1] = test system: simple and complex partial seizures and secondarily generalized seizures; conditions: clinical trials of human epilepsy; adjunctive therapy or monotherapy; cited from earlier work

CC1(C)O[C@@H]2[C@@H](CO[C@@]3(COS(N)(=O)=O)OC(C)(C)O[C@@H]23)O1 [topiramate, 2,3:4,5-bis-O-(1-methylethylidene)-β-D-fructopyranose sulfamate]
reduction in lipoma size/mass (lipoma): shrunk considerably | efficacy in treating simple and complex partial seizures and secondarily generalized seizures [1]: effective
